Experimental data from US11814445B2, “Cyclic polypeptides for PCSK9 inhibition” (Ra Pharmaceuticals, Inc., priority 2018, dated 2023).
Numbered stars: 1 amine (or outer) side, 2 acyl side, 3 side chain; on linkers, the order of the positions; unused ones are H or OH. Bridge positions count the residues as written; N and C are the ends. Square brackets hold non-standard residues; d marks the D form. Peptide text beside a SMILES is read from it. ξ: configuration not given here. Phe(4-CF3) = N[C@@H](Cc1ccc(C(F)(F)F)cc1)C(=O)O; Trp(5-F) = N[C@@H](Cc1c[nH]c2ccc(F)cc12)C(=O)O; Pro(trans-4-F) = O=C(O)[C@@H]1C[C@@H](F)CN1; Phe(3-Cl) = N[C@@H](Cc1cccc(Cl)c1)C(=O)O; Phe(4-Cl) = N[C@@H](Cc1ccc(Cl)cc1)C(=O)O; Pro(cis-4-F) = O=C(O)[C@@H]1C[C@H](F)CN1; αMeW = C[C@](N)(Cc1c[nH]c2ccccc12)C(=O)O; X1 = O=C(CCSCc1cccc(CSCCN[*:1])c1)[*:2]; mXylylene = c1cc(C[*:1])cc(C[*:2])c1; NBzl(4-I)Gly = O=C(O)CNCc1ccc(I)cc1; NMeY = CN[C@@H](Cc1ccc(O)cc1)C(=O)O; Igl = N[C@H](C(=O)O)C1Cc2ccccc2C1; NMeF = CN[C@@H](Cc1ccccc1)C(=O)O; 2Pal = N[C@@H](Cc1ccccn1)C(=O)O; 3Pal = N[C@@H](Cc1cccnc1)C(=O)O; 4Pal = N[C@@H](Cc1ccncc1)C(=O)O; αMeP = C[C@@]1(C(=O)O)CCCN1; ΔPro = O=C(O)[C@@H]1C=CCN1; Pip = O=C(O)[C@@H]1CCCCN1; Ac5c = NC1(C(=O)O)CCCC1; Thp = NC1(C(=O)O)CCOCC1; ξP = O=C(O)C1CCCN1; Mpa = O=C(O)CCS

These compounds were tested against human PCSK9 / human LDLR EGFa domain (Homo sapiens, UniProt Q8NBP7) (assay: TR-FRET assay of inhibition of the PCSK9-LDLR protein-protein interaction). Settings: 20 nM human PCSK9, 20 nM human LDLR EGFa domain, 2 hours room temperature.
Sequence of human PCSK9 / human LDLR EGFa domain (Q8NBP7 153-692): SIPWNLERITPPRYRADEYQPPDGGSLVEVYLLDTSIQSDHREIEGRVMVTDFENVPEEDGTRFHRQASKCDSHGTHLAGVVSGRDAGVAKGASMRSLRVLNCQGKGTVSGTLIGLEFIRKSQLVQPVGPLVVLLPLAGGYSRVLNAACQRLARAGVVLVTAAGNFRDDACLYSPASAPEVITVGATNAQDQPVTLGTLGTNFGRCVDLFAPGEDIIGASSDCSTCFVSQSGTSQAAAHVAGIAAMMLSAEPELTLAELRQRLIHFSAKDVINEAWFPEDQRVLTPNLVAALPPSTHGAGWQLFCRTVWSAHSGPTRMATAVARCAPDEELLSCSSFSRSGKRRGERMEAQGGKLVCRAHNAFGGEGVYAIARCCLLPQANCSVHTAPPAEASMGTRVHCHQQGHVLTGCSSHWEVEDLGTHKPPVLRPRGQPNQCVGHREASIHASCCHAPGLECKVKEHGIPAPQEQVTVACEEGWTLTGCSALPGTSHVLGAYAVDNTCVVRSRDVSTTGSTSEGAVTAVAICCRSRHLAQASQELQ
Type: binding
Description: A time-resolved fluorescence resonance energy (TR-FRET) assay was used to measure inhibition of the PCSK9-LDLR protein-protein interaction. Briefly, 20 nM avitag-biotinylated human PCSK9 was incubated with 20 nM his-tagged human LDLR EGFa domain in the presence of 5 nM LANCE Ulight Streptavidin (Perkin Elmer) and 5 nM europium-Anti-6×His (Perkin Elmer) for 2 hours covered at room temperature in buffer containing 50 mM HEPES, 150 mM NaCl, 5 mM CaCl2), 0.01% BSA and 0.01% Surfactant P20. Compounds were tested in dose-response and concentrations giving half-maximal inhibition calculated using a 4-parameter fit equation.

Compound	IC50
C[C@@H]1NC(=O)[C@@H]2C[C@H](F)CN2C(=O)[C@H](Cc2c[nH]c3ccc(F)cc23)NC(=O)[C@H](Cc2c[nH]c3ccc(F)cc23)NC(=O)CNC(=O)[C@H](CCCCN)NC(=O)CCSCc2cccc(c2)CSC[C@@H](C(N)=O)NC(=O)[C@@H]2CCCN2C(=O)[C@H](Cc2ccc(O)cc2)NC1=O [Compound 002] ([Mpa]KG[Trp(5-F)][Trp(5-F)][Pro(cis-4-F)]AYPC-NH2; linker 1-10 via mXylylene)	1 to 100 nM
C[C@@H]1NC(=O)[C@@H]2CCCN2C(=O)[C@H](Cc2c[nH]c3ccc(F)cc23)NC(=O)[C@H](Cc2c[nH]c3ccc(F)cc23)NC(=O)[C@@H](C)NC(=O)[C@H](CCCCN)NC(=O)CCSCc2cccc(c2)CSCCNC(=O)[C@]2(C)CCCN2C(=O)[C@H](Cc2ccc(O)cc2)NC1=O [Compound 003] (cyclo(AY[αMeP][X1]K[dA][Trp(5-F)][Trp(5-F)]P))	1000 to 12100 nM
C[C@@H]1NC(=O)[C@@H]2CCCN2C(=O)[C@H](Cc2ccc(Cl)cc2)NC(=O)[C@H](Cc2c[nH]c3ccc(F)cc23)NC(=O)CNC(=O)[C@H](CCCCN)NC(=O)CCSCc2cccc(c2)CSC[C@@H](C(N)=O)NC(=O)[C@@H]2CCCN2C(=O)[C@H](Cc2ccc(O)cc2)NC1=O [Compound 004] ([Mpa]KG[Trp(5-F)][Phe(4-Cl)]PAYPC-NH2; linker 1-10 via mXylylene)	1000 to 12100 nM
C[C@@H]1NC(=O)[C@@H]2CCCN2C(=O)[C@H](Cc2cccc(Cl)c2)NC(=O)[C@H](Cc2c[nH]c3ccc(F)cc23)NC(=O)CNC(=O)[C@H](CCCCN)NC(=O)CCSCc2cccc(c2)CSC[C@@H](C(N)=O)NC(=O)[C@@H]2CCCN2C(=O)[C@H](Cc2ccc(O)cc2)NC1=O [Compound 005] ([Mpa]KG[Trp(5-F)][Phe(3-Cl)]PAYPC-NH2; linker 1-10 via mXylylene)	100 to 1000 nM
C[C@@H]1NC(=O)[C@@H]2CCCN2C(=O)[C@H](Cc2ccc(C(F)(F)F)cc2)NC(=O)[C@H](Cc2c[nH]c3ccc(F)cc23)NC(=O)CNC(=O)[C@H](CCCCN)NC(=O)CCSCc2cccc(c2)CSC[C@@H](C(N)=O)NC(=O)[C@@H]2CCCN2C(=O)[C@H](Cc2ccc(O)cc2)NC1=O [Compound 007] ([Mpa]KG[Trp(5-F)][Phe(4-CF3)]PAYPC-NH2; linker 1-10 via mXylylene)	1000 to 12100 nM
C[C@@H]1NC(=O)[C@@H]2CCCN2C(=O)[C@H](C2Cc3ccccc3C2)NC(=O)[C@H](Cc2c[nH]c3ccc(F)cc23)NC(=O)CNC(=O)[C@H](CCCCN)NC(=O)CCSCc2cccc(c2)CSC[C@@H](C(N)=O)NC(=O)[C@@H]2CCCN2C(=O)[C@H](Cc2ccc(O)cc2)NC1=O [Compound 008] ([Mpa]KG[Trp(5-F)][Igl]PAYPC-NH2; linker 1-10 via mXylylene)	100 to 1000 nM
C[C@@H]1NC(=O)[C@@H]2CCCN2C(=O)CN(Cc2ccc(I)cc2)C(=O)[C@H](Cc2c[nH]c3ccc(F)cc23)NC(=O)CNC(=O)[C@H](CCCCN)NC(=O)CCSCc2cccc(c2)CSC[C@@H](C(N)=O)NC(=O)[C@@H]2CCCN2C(=O)[C@H](Cc2ccc(O)cc2)NC1=O [Compound 010] ([Mpa]KG[Trp(5-F)][NBzl(4-I)Gly]PAYPC-NH2; linker 1-10 via mXylylene)	100 to 1000 nM
COc1ccc(C[C@@H]2NC(=O)[C@H](Cc3c[nH]c4ccc(F)cc34)NC(=O)CNC(=O)[C@H](CCCCN)NC(=O)CCSCc3cccc(c3)CSC[C@@H](C(N)=O)NC(=O)[C@@H]3CCCN3C(=O)[C@H](Cc3ccc(O)cc3)NC(=O)[C@H](C)NC(=O)[C@@H]3CCCN3C2=O)cc1 [Compound 018] ([Mpa]KG[Trp(5-F)]Y(Me)PAYPC-NH2; linker 1-10 via mXylylene)	100 to 1000 nM
C[C@@H]1NC(=O)[C@@H]2CCCN2C(=O)[C@H](Cc2ccccn2)NC(=O)[C@H](Cc2c[nH]c3ccc(F)cc23)NC(=O)CNC(=O)[C@H](CCCCN)NC(=O)CCSCc2cccc(c2)CSC[C@@H](C(N)=O)NC(=O)[C@@H]2CCCN2C(=O)[C@H](Cc2ccc(O)cc2)NC1=O [Compound 019] ([Mpa]KG[Trp(5-F)][2Pal]PAYPC-NH2; linker 1-10 via mXylylene)	21000 to 50000 nM
C[C@@H]1NC(=O)[C@@H]2CCCN2C(=O)[C@H](Cc2cccnc2)NC(=O)[C@H](Cc2c[nH]c3ccc(F)cc23)NC(=O)CNC(=O)[C@H](CCCCN)NC(=O)CCSCc2cccc(c2)CSC[C@@H](C(N)=O)NC(=O)[C@@H]2CCCN2C(=O)[C@H](Cc2ccc(O)cc2)NC1=O [Compound 020] ([Mpa]KG[Trp(5-F)][3Pal]PAYPC-NH2; linker 1-10 via mXylylene)	21000 to 50000 nM
C[C@@H]1NC(=O)[C@@H]2CCCN2C(=O)[C@H](Cc2ccncc2)NC(=O)[C@H](Cc2c[nH]c3ccc(F)cc23)NC(=O)CNC(=O)[C@H](CCCCN)NC(=O)CCSCc2cccc(c2)CSC[C@@H](C(N)=O)NC(=O)[C@@H]2CCCN2C(=O)[C@H](Cc2ccc(O)cc2)NC1=O [Compound 021] ([Mpa]KG[Trp(5-F)][4Pal]PAYPC-NH2; linker 1-10 via mXylylene)	100 to 1000 nM
C[C@@H]1NC(=O)[C@@H]2CCCN2C(=O)[C@](C)(Cc2c[nH]c3ccccc23)NC(=O)[C@H](Cc2c[nH]c3ccc(F)cc23)NC(=O)CNC(=O)[C@H](CCCCN)NC(=O)CCSCc2cccc(c2)CSC[C@@H](C(N)=O)NC(=O)[C@@H]2CCCN2C(=O)[C@H](Cc2ccc(O)cc2)NC1=O [Compound 023] ([Mpa]KG[Trp(5-F)][αMeW]PAYPC-NH2; linker 1-10 via mXylylene)	1000 to 12100 nM
C[C@@H]1NC(=O)[C@@H]2CCCN2C(=O)[C@H](Cc2c[nH]c3ccc(F)cc23)NC(=O)[C@H](Cc2c[nH]c3ccc(F)cc23)NC(=O)[C@@H](C)NC(=O)C2(CCCC2)NC(=O)CCSCc2cccc(c2)CSCCNC(=O)[C@@H]2CCCN2C(=O)[C@H](Cc2ccc(O)cc2)NC1=O [Compound 030] (cyclo(AYP[X1][Ac5c][dA][Trp(5-F)][Trp(5-F)]P))	100 to 1000 nM
C[C@@H]1NC(=O)[C@@H]2CCCN2C(=O)[C@H](Cc2c[nH]c3ccc(F)cc23)NC(=O)[C@H](Cc2c[nH]c3ccc(F)cc23)NC(=O)[C@@H](C)NC(=O)C2(CCOCC2)NC(=O)CCSCc2cccc(c2)CSCCNC(=O)[C@@H]2CCCN2C(=O)[C@H](Cc2ccc(O)cc2)NC1=O [Compound 031] (cyclo(AYP[X1][Thp][dA][Trp(5-F)][Trp(5-F)]P))	100 to 1000 nM
C[C@@H]1NC(=O)[C@@H]2CCCN2C(=O)[C@H](Cc2c[nH]c3ccc(F)cc23)NC(=O)[C@H](Cc2c[nH]c3ccc(F)cc23)NC(=O)CNC(=O)[C@H](CCCCN)NC(=O)CCSCc2cccc(c2)CSC[C@@H](C(N)=O)NC(=O)[C@@H]2CCCN2C(=O)[C@@H]2CCCN2C1=O [Compound 032] ([Mpa]KG[Trp(5-F)][Trp(5-F)]PAPPC-NH2; linker 1-10 via mXylylene)	100 to 1000 nM
NCCCC[C@@H]1NC(=O)CCSCc2cccc(c2)CSC[C@@H](C(N)=O)NC(=O)[C@@H]2CCCN2C(=O)[C@@H]2CCCN2C(=O)[C@@H]2CCCN2C(=O)[C@@H]2CCCN2C(=O)[C@H](Cc2c[nH]c3ccc(F)cc23)CC(=O)[C@H](Cc2c[nH]c3ccc(F)cc23)NC(=O)CNC1=O [Compound 033]	1000 to 12100 nM
C[C@@H]1NC(=O)[C@@H]2CCCCN2C(=O)[C@H](Cc2c[nH]c3ccc(F)cc23)NC(=O)[C@H](Cc2c[nH]c3ccc(F)cc23)NC(=O)[C@@H](C)NC(=O)[C@H](CCCCN)NC(=O)CCSCc2cccc(c2)CSC[C@@H](C(N)=O)NC(=O)[C@@H]2CCCN2C(=O)[C@H](Cc2ccc(O)cc2)NC1=O [Compound 035] ([Mpa]K[dA][Trp(5-F)][Trp(5-F)][Pip]AYPC-NH2; linker 1-10 via mXylylene)	100 to 1000 nM
C[C@@H]1NC(=O)[C@@H]2C[C@@H](F)CN2C(=O)[C@H](Cc2c[nH]c3ccc(F)cc23)NC(=O)[C@H](Cc2c[nH]c3ccc(F)cc23)NC(=O)[C@@H](C)NC(=O)[C@H](CCCCN)NC(=O)CCSCc2cccc(c2)CSC[C@@H](C(N)=O)NC(=O)[C@@H]2CCCN2C(=O)[C@H](Cc2ccc(O)cc2)NC1=O [Compound 037] ([Mpa]K[dA][Trp(5-F)][Trp(5-F)][Pro(trans-4-F)]AYPC-NH2; linker 1-10 via mXylylene)	100 to 1000 nM
C[C@@H]1NC(=O)[C@@H]2C=CCN2C(=O)[C@H](Cc2c[nH]c3ccc(F)cc23)NC(=O)[C@H](Cc2c[nH]c3ccc(F)cc23)NC(=O)[C@@H](C)NC(=O)[C@H](CCCCN)NC(=O)CCSCc2cccc(c2)CSC[C@@H](C(N)=O)NC(=O)[C@@H]2CCCN2C(=O)[C@H](Cc2ccc(O)cc2)NC1=O [Compound 038] ([Mpa]K[dA][Trp(5-F)][Trp(5-F)][ΔPro]AYPC-NH2; linker 1-10 via mXylylene)	100 to 1000 nM
C[C@H]1NC(=O)[C@H]2CCCN2C(=O)[C@H](Cc2c[nH]c3ccc(F)cc23)NC(=O)[C@H](Cc2c[nH]c3ccc(F)cc23)NC(=O)CNC(=O)[C@H](CCCCN)NC(=O)CCSCc2cccc(c2)CSCCNC(=O)C2CCCN2C(=O)[C@H](Cc2ccc(O)cc2)NC1=O (stereo partly shown) [Compound 040] (cyclo(G[Trp(5-F)][Trp(5-F)][dP][dA]Y[ξP][X1]K))	1 to 100 nM
C[C@@H]1NC(=O)[C@@H]2CCCN2C(=O)[C@H](Cc2c[nH]c3ccc(F)cc23)NC(=O)[C@H](Cc2c[nH]c3ccc(F)cc23)NC(=O)[C@@H](C)NC(=O)[C@@H]2CCCN2C(=O)CCSCc2cccc(c2)CSCCNC(=O)[C@@H]2CCCN2C(=O)[C@H](Cc2ccccc2)N(C)C1=O [Compound 051] (cyclo(A[NMeF]P[X1]P[dA][Trp(5-F)][Trp(5-F)]P))	1 to 100 nM
C[C@@H]1NC(=O)[C@@H]2CCCN2C(=O)[C@H](Cc2c[nH]c3ccc(F)cc23)NC(=O)[C@H](Cc2c[nH]c3ccc(F)cc23)NC(=O)[C@@H](C)NC(=O)[C@@H]2CCCN2C(=O)CCSCc2cccc(c2)CSCCNC(=O)[C@@H]2CCCN2C(=O)[C@H](Cc2ccc(O)cc2)N(C)C1=O [Compound 052] (cyclo(A[NMeY]P[X1]P[dA][Trp(5-F)][Trp(5-F)]P))	100 to 1000 nM
